Assay results published in patent publication US20260284011A1, “COMPOUNDS FOR RESTORING SUSCEPTIBILITY TO BETA-LACTAM ANTIBIOTICS” (UNIVERSITY OF NOTRE DAME DU LAC, priority 2023, published 2026).

Columns and labels:
[1] = target: BlaR (Staphylococcus aureus, UniProt P18357); assay: Live-cell fluorescent assay for BlaR inhibition (Venus reporter); assay type: cell-based, S. aureus NRS144pCN52RI-Venus; settings: compound at 100 mg/L^−1; CBAP 10 mg·L^−1; fluorescence after 2 h
Text: Live-Cell Fluorescent Assay in Discovery and Mechanism of Action. We conceived of fluorescent constructs in the bla operon, for the purpose of screening (FIG. 2a). We removed the gene for the β-lactamase (blaZ) and put in its place individually the genes for the Green Fluorescent Protein (GFP), Venus (a yellow-fluorescent protein) or mCherry (a red-fluorescent protein) in the template plasmid pCN52. The three plasmids were named pCN52RI, pCN52RI-Venus and pCN52RI-mCherry, respectively. The genes for the fluorescent proteins were transcribed under the promoter of the blaZ gene and were regulated by the proteins BlaR and BlaI, as is the case for the wild-type bla operon.
We transformed separately S. aureus NRS144—a laboratory strain that accepts a foreign gene and harbors neither the bla nor the mec operons—with each of these plasmids. […] When induced, the fluorescent protein is produced and is detected (akin to expression of the resistance genes blaZ or mecA in typical MSSA and MRSA). […] The transformed strains were grown in tryptic soy broth medium for overnight culture and strain maintenance and incubated in cation-adjusted Mueller-Hinton broth medium for inhibitor screening in a 96-well microplate format. The culture without CBAP addition was the negative control. In order to select a desirable reporter construct, we compared the intensity of the fluorescence produced from each construct at the wavelengths given in FIG. 2a using the Cytation-5 multi-mode microplate reader. Among the three constructs, pCN52RI-Venus produced the best fluorescence intensity and pCN52RI-mCherry was the second best (FIG. 4).
(§1) The collection of the 100 compounds from the in-silico search was screened against S. aureus NRS144pCN52RI-Venus. The screening strategy was as follows. Bacteria grown to OD600 of 0.25 were exposed concurrently to CBAP (10 mg·L^−1) and the test compound (100 mg·L^−1). Fluorescence was recorded after two hours of incubation. OD600 values were also recorded to identify compounds with inherent antibacterial activity. Compound 1 (Chart 1) emerged—82% diminished fluorescence as an indication of the extent of BlaR inhibition—as a suitable template for structure elaboration. This effort led to the synthesis of several dozen benzimidazole and imidazole compounds. The progression of the iterative design is depicted in Chart 1 for four compounds, culminating in 4. […] The X-ray structures for the complexes of compounds 2 (non-covalent) and 4 (covalent) with the BlaR sensor domain are shown respectively in FIG. 2b (2.0 Å resolution) and FIG. 2c (1.97 Å resolution). Compound 4 makes a covalent bond with the catalytic Ser389 and creates a network of hydrogen bonds with the BlaR active site (FIG. 2c).
(§2) Fluorescent assay for screening of BlaR potential inhibitors. A 3-mL portion of lysogeny broth (LB) medium was inoculated with NRS144pCN52RI Venus from frozen stocks and grown overnight at 37° C. The overnight culture was then diluted 1:150 fold with fresh LB containing […] of erythromycin and incubated at 37° C. to an OD600 of 0.3, at which point fluorescence was induced by the addition of CBAP to a final concentration of 10 μg·mL^−1. The culture was aliquoted (99 L) into 96-well plate and 1 L of inhibitor solution (1 mg·mL^−1 in DMSO) was added to each well. Negative control (DMSO without CBAP) and positive control (CBAP without inhibitor) were included. The plate was incubated at 30° C. for 2 h with intermittent shaking. Fluorescence and OD600 measurements were taken by a Cytation-5 multimode microplate reader. Percent inhibition of BlaR and bacterial growth were calculated using absorbance unit (AU) and OD600 values of each sample entered into this formula: […]

[2] = test system: S. aureus NRS144pCN52RI-Venus; assay: Bacterial growth inhibition (OD600) in the fluorescent screening assay; assay type: cell-based, Staphylococcus aureus; settings: compound at 100 mg/L^−1; OD600 after 2 h
Procedure: as §1, §2

BlaR, sequence (P18357 whole entry): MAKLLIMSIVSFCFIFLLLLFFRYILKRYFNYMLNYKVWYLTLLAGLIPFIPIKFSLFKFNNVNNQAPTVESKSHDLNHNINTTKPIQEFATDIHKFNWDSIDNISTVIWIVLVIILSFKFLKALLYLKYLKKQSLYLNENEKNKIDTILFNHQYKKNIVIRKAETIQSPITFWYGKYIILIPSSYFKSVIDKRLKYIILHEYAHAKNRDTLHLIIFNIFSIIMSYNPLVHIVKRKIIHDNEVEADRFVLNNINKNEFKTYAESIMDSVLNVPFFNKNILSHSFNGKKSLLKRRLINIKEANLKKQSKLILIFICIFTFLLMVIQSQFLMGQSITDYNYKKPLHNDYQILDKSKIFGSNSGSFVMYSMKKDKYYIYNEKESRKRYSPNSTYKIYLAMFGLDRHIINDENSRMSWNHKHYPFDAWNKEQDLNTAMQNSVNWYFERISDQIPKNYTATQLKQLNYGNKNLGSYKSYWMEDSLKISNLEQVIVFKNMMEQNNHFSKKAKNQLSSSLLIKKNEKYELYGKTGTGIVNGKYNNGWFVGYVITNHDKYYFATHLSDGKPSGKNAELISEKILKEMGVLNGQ

SMILES | % Inhibition of BlaR [1] [%] | % Inhibition of bacterial growth [2]
CC(=O)NCc1ccc2nc(S)n(Cc3ccc(C(F)(F)F)cc3C(F)(F)F)c2c1 | 70 | 0%
OC[C@@H](O)[C@H](O)[C@H](O)c1cn(Cc2ccccc2)c(=S)[nH]1 | 13 | 0%
OC[C@@H](O)[C@@H](O)c1cn(Cc2ccccc2)c(=S)[nH]1 | 11 | 0%
O=S(=O)(O)c1nc2ccccc2n1Cc1ccc(C(F)(F)F)cc1C(F)(F)F [Compound 1, 1-[[2,4-Bis(trifluoromethyl)phenyl]methyl]benzimidazole-2-sulfonic acid] | 82 | 0%
OCc1cn(Cc2ccc(C(F)(F)F)cc2C(F)(F)F)c(=S)[nH]1 [Compound 2, 4-(Hydroxymethyl)-1-[[2,4-bis(trifluoromethyl)phenyl]methyl]-2H-imidazole-2-thione] | 92 | 0%
OB(O)CSc1nc2ccccc2n1Cc1ccc(C(F)(F)F)cc1C(F)(F)F [Compound 3] | 98 | 20%
FC(F)(F)c1ccc(Cn2c(=S)[nH]c3ccccc32)c(C(F)(F)F)c1 [Compound 8, 1-[[2,4-Bis(trifluoromethyl)phenyl]methyl]benzimidazole-2-thione] | 65 | 10%
N#Cc1ccc2c(c1)[nH]c(=S)n2Cc1ccc(C(F)(F)F)cc1C(F)(F)F [Compound 9, 1-[2,4-bis(trifluoromethyl)benzyl]-5-nitrile-benzimidazole-2-thione] |  | 97%
O=S(=O)(O)c1nc2ccccc2n1Cc1ccc(F)cc1C(F)(F)F [Compound 11] | 78 | 0%
O=S(=O)(O)c1nc2ccccc2n1Cc1ccc(Cl)cc1 [Compound 12] | 72 | 0%
O=S(=O)(O)c1nc2ccccc2n1Cc1ccccc1C(F)(F)F [Compound 13] | 69 | 0%
NCc1ccc2nc(S)n(Cc3ccc(C(F)(F)F)cc3C(F)(F)F)c2c1 [Compound 14] | 60 | 0%
COC(=O)c1ccc2nc(S)n(Cc3ccc(C(F)(F)F)cc3C(F)(F)F)c2c1 [Compound 15] | 10 | 0%
COC(=O)c1ccc2nc(S(=O)(=O)O)n(Cc3ccc(C(F)(F)F)cc3C(F)(F)F)c2c1 [Compound 16] | 20 | 0%
OCc1ccc2nc(S)n(Cc3ccc(C(F)(F)F)cc3C(F)(F)F)c2c1 [Compound 17] | 0 | 99%
COC(=O)c1ccc2nc(N)n(Cc3ccc(C(F)(F)F)cc3C(F)(F)F)c2c1 [Compound 20] |  | 0%
O=C(/C=C/c1ccc(F)cc1)NCc1ccc2nc(S(=O)(=O)O)n(Cc3ccc(C(F)(F)F)cc3C(F)(F)F)c2c1 [Compound 24] |  | 24, R^4 = F, R^5 = H, X = SO3H, 100; 100%
C[N+]12CC(=O)O[B-]1(CSc1nc3ccccc3n1Cc1ccc(C(F)(F)F)cc1C(F)(F)F)OC(=O)C2 (stereo not drawn) [Compound 31, (T-4)-[N-[(Carboxy-κO)methyl]-N-methylglycinato(2-)-κN,κO][[N^1-[[2,4-bis(trifluoromethyl)phenyl]methyl]-1H-benzimidazole-1-yl]thiomethyl]boron] |  | 13%
OCCc1nc2ccccc2n1Cc1ccc(C(F)(F)F)cc1C(F)(F)F [Compound 44] |  | 40%
CC(C)(C)OC(=O)NCc1cn(Cc2ccc(C(F)(F)F)cc2C(F)(F)F)c(=S)[nH]1 [Compound 47] |  | 0%
NS(=O)(=O)c1nc([C@H](O)[C@H](O)CO)cn1Cc1ccccc1 [Compound 53] |  | 49%
O=S(=O)(F)c1nc(CO)cn1Cc1ccc(C(F)(F)F)cc1C(F)(F)F [Compound 59] |  | 83%
